PubChem BioAssay AID977621 (Broad Institute, 2014)
Records with an inconclusive call do not appear. Calls of active or inactive are those of the source.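 The calls were made as follows: active = Wild-type ribosome reporter drop at least double the humanized mutant ribosome reporter drop, growth loss under a set limit; inconclusive = no clear call, values can overlap the other calls; inactive = the rest.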

Test system: E. coli wild-type GFP strain growth, fluorescence, 24 h
Experiment: growth inhibition of wild-type GFP E. coli, dose response, H69 mutant RFP, cherry-pick (AID 977621);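 also: wild-type GFP and H69 mutant RFP strains grown together 50/50 in each well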
[1] = E. coli mixed culture, 24 h, measured here: total growth OD600, test 2

SMILES | AC50 | AC50 [1]
O=S(=O)(Cc1ccccc1)N1CCCCN2[C@@H](CO)[C@H](c3ccc(C#Cc4ccccc4)cc3)[C@@H]2C1 | > 100 µM (inactive) | –
CC(=O)Nc1ccc(S(=O)(=O)Nc2cccc(-c3nc4cc(C)ccc4o3)c2)cc1 | – | > 100 µM
CCN(C(=O)COC(=O)CCc1ccccc1)c1ccccc1 | > 100 µM (inactive) | > 100 µM
NS(=O)(=O)c1cccc(NC(=O)CSc2nnc(-c3ccccc3F)n2C2CC2)c1 | > 100 µM (inactive) | –
Cc1nc2ncnn2c(N2CCC(C(=O)NC3CCCC3)CC2)c1Cc1ccccc1 | – | > 100 µM
O=C(Nc1ccc2c(c1)OCO2)c1ccc([N+](=O)[O-])cc1[N+](=O)[O-] | > 100 µM (inactive) | –
OC(COc1ccc(Cl)cc1)CN1CCN(c2ccccn2)CC1 (stereo not given) | > 100 µM (inactive) | –
COc1ccccc1N(C1=NCCCS1)S(=O)(=O)c1ccc(C(C)(C)C)cc1 | > 100 µM (inactive) | –
Cc1sc2ncn(CC(=O)Nc3ccccc3F)c(=O)c2c1-c1ccccc1 | > 100 µM (inactive) | –
O=C(c1ccc(Cl)cc1)N1CCN(c2cccc3[nH]ccc23)CC1 | > 100 µM (inactive) | –
CCCC[n+]1ccn(-c2nc3ccccc3nc2[N-]S(=O)(=O)c2cccs2)c1 | > 100 µM (inactive) | > 100 µM
COc1ccc(C(=O)N(c2ccccc2)c2nccc3ccccc23)cc1OC | > 100 µM (inactive) | –
CCCn1c(C(C)Nc2nc(-c3ccc(C)cc3)cs2)nc2ccccc21 (stereo not given) | – | > 100 µM
Oc1ccc2c3c1OC1c4oc5ccccc5c4C[C@@]4(O)[C@@H](C2)N(CC2CC2)CC[C@]314 (stereo not given in full) | > 100 µM (inactive) | –
CN(C)C(CNS(=O)(=O)c1cc([N+](=O)[O-])ccc1Cl)c1ccco1 (stereo not given) | > 100 µM (inactive) | –
CSc1nc2ccc(NS(=O)(=O)c3ccc([N+](=O)[O-])cc3)cc2s1 | – | < 0.6 µM
Clc1ccc(-c2nc(NCCCN3CCOCC3)c3ccccc3n2)cc1 | > 100 µM (inactive) | –
O=S(=O)(c1ccccc1)N1CCN=C1SCc1cccc(Cl)c1 | > 100 µM (inactive) | 35.9 µM
O=c1[nH]nc(SCc2ccccc2)n1C1CC2C=CC1C2 (stereo not given) | – | 40.6 µM
O=C(NCc1cccnc1)c1ccc(COc2ccc3c(c2)CCC3)o1 | > 100 µM (inactive) | –
Cc1ccccc1-n1ncc2c(SCC(=O)N3c4ccccc4CC3C)ncnc21 (stereo not given) | > 100 µM (inactive) | –
Cc1cc(C(=O)COC(=O)c2ccc(O)cc2)c(C)n1CC(F)(F)F | – | > 100 µM
COc1ccc(CNC(=O)Cc2cn(C)c3ccccc23)c(OC)c1 | – | > 100 µM

SMILES | AC50 | AC50 [1]
COc1ccc(OC)c(-c2nnc3n2N=C(c2ccc(OC)c(OC4CCOC4)c2)CS3)c1 (stereo not given) | > 100 µM (inactive) | > 100 µM
COc1cc2cc(C(=O)Nc3ccc4c(c3)OCCO4)[nH]c2cc1OC | – | > 100 µM
O=C(CCCOc1ccccc1)NCCc1nc2ccccc2[nH]1 | > 100 µM (inactive) | –
Cc1ccc(C#N)c(SCc2ccccc2F)n1 | > 100 µM (inactive) | 34.2 µM
Cc1cccc(-c2ccc([C@@H]3[C@@H](CO)N4CCCCN(S(=O)(=O)c5ccccc5C)C[C@H]34)cc2)c1 | – | 48.8 µM
O=C1CCCN1CCCNc1ncnc2c1[nH]c1ccc(Cl)cc12 | – | 40.5 µM
COC(=O)CN1C(=S)N(c2ccc(Cl)cc2)C(=O)C1CC(=O)Nc1ccc(F)cc1 (stereo not given) | > 100 µM (inactive) | > 100 µM
CC(=O)Nc1ccc(-c2ccnc3c2CC(C)(C(=O)Nc2ccc4c(c2)OCO4)O3)cc1 (stereo not given) | – | > 100 µM
Cc1cc(C(=O)c2ccc3ccccc3c2)c(C)o1 | > 100 µM (inactive) | –
COc1ccc(C2CC(=O)Oc3cc(C)cc(C)c32)cc1 (stereo not given) | – | > 100 µM
COc1ccc(NS(=O)(=O)c2ccc(Cl)c(NC(=O)c3ccccc3F)c2)cc1 | > 100 µM (inactive) | –
COc1ccc(OCC2c3cc(OC)c(OC)cc3CCN2C(=O)C(C)C)cc1 (stereo not given) | > 100 µM (inactive) | –
CC(C)Sc1sc(C(=O)O)c(-c2ccc(Cl)cc2)c1C#N | – | 32.7 µM
Nc1ccccc1Sc1c[nH]c2ccccc12 | – | > 100 µM
COc1ccc(NS(=O)(=O)c2ccc(NC(=O)c3ccccc3Br)cc2)nn1 | > 100 µM (inactive) | –
C=C1SC(Nc2c(C)cc(C)cc2C)=NC12CCCCC2 | > 100 µM (inactive) | 31.9 µM
Cc1ccccc1-c1cc(C(=O)NCc2cccs2)n(CC2CC(c3cccnc3)=NO2)n1 (stereo not given) | > 100 µM (inactive) | > 100 µM
CN(c1ccccc1)S(=O)(=O)c1cccc(C(=O)OCC(=O)NCc2ccco2)c1 | > 100 µM (inactive) | –
CCCN(CC1CC1)C(=O)CSc1ncnc2sccc12 | > 100 µM (inactive) | –
CCCCc1ccc(S(=O)(=O)Nc2ccc(C)c(NS(C)(=O)=O)c2)cc1 | – | 49.5 µM
CCOC(=O)c1c(C)nsc1NCc1ccccc1 | – | > 100 µM
C=CCN(c1ccccc1)S(=O)(=O)c1cccc2cccnc12 | – | > 100 µM
CCOC(=O)c1cc2sccc2n1CCCN1C(=O)c2ccccc2C1=O | > 100 µM (inactive) | > 100 µM

SMILES | AC50 | AC50 [1]
Cc1nc(C)c(-c2ccn(S(=O)(=O)c3ccc(Cl)cc3)n2)o1 | > 100 µM (inactive) | –
NS(=O)(=O)c1cccc(NC(=O)CSc2nc3ccccc3n2-c2ccccc2)c1 | > 100 µM (inactive) | 40.3 µM
O=C(NCCc1ccc(Cl)cc1)c1ccc2nc[nH]c2c1 | > 100 µM (inactive) | –
COc1ccc(OC)c(C(=O)COC(=O)c2ccc([N+](=O)[O-])o2)c1 | > 100 µM (inactive) | > 100 µM
COc1cccc(-c2ccc([C@@H]3[C@H](CO)N4CCCCN(S(=O)(=O)c5cccs5)C[C@@H]34)cc2)c1 | > 100 µM (inactive) | 33.5 µM
O=C(NCc1ccc2c(c1)OCO2)c1sccc1Br | > 100 µM (inactive) | –
CC1Cc2ccccc2N1C(=O)CN1C(=O)NC(C)(CCc2ccccc2)C1=O (stereo not given) | – | > 100 µM
O=C(Cn1c2[n+](c3ccc(C(F)(F)F)cc31)CCCCC2)c1ccc2c(c1)OCCO2 | > 100 µM (inactive) | –
COc1cccc(NS(=O)(=O)c2ccc(-c3coc(C)n3)cc2)c1 | > 100 µM (inactive) | 3.29 µM
CC(C)CC#Cc1ccc2c(c1)O[C@@H](CN(C)Cc1ccccn1)[C@H](C)CN([C@H](C)CO)S2(=O)=O | > 100 µM (inactive) | –
CCOc1ccc(S(=O)(=O)Nc2ccc(S(=O)(=O)N3CCCC3)cc2)cc1 | > 100 µM (inactive) | –
COc1cccc(NC(=O)C2CCC(CNS(=O)(=O)c3cccc4cccnc34)CC2)c1 (stereo not given) | > 100 µM (inactive) | –
CCCN(CC(=O)Nc1ccccc1C)C(=O)c1cccc(S(=O)(=O)N2CCc3ccccc3C2)c1 | > 100 µM (inactive) | 40.8 µM
CO[C@@H]1CN(C)C(=O)c2ccc(NC(=O)c3nc4ccccc4s3)cc2OC[C@@H](C)N(Cc2ccncc2)C[C@@H]1C | 52 µM (inactive) | –
O=C1c2ccccc2C(c2nnnn2Cc2ccccc2)N1Cc1cccc(F)c1 (stereo not given) | – | > 100 µM
Cc1ccc(-n2nnnc2-c2ccccc2Br)cc1 | > 100 µM (inactive) | 46 µM
Cc1cc(C(=O)COC(=O)CNC(=O)c2ccccc2)c(C)n1CC1CCCO1 (stereo not given) | – | > 100 µM
COC(=O)c1sc(-c2ccc(C(C)(C)C)cc2)cc1NC(=O)c1ccccc1C(=O)O | – | > 100 µM
CCOC(=O)c1cc(-c2ccc(OC)cc2)n[nH]1 | – | > 100 µM
CC1Cc2cc(S(=O)(=O)N3CCN(c4cccc(Cl)c4)CC3)ccc2N1C(=O)C1CC1 (stereo not given) | – | > 100 µM
CCCCC(=O)N1CCN(c2nc3ccc(Br)cc3s2)CC1 | > 100 µM (inactive) | 31 µM
COc1ccc(NC(=O)Nc2cccc3c2O[C@H](CN(C)S(=O)(=O)c2ccc(Cl)cc2)[C@H](C)CN([C@@H](C)CO)C3=O)cc1 | > 100 µM (inactive) | 6.44 µM
Cc1cc(NC(=O)CSc2nccn2-c2cccc(C)c2C)no1 | > 100 µM (inactive) | > 100 µM

SMILES | AC50 | AC50 [1]
COc1ccc(NC(=O)Nc2cccc3c2O[C@@H](CN(C)S(=O)(=O)c2ccc(Cl)cc2)[C@H](C)CN([C@H](C)CO)C3=O)cc1 | > 100 µM (inactive) | –
COc1ccc(CCNc2nc(-c3ccncc3)cs2)cc1OC | > 100 µM (inactive) | –
O=C(c1ccc2c(c1)CCN2S(=O)(=O)c1ccccc1)N1CCN(c2ccccc2)CC1 | > 100 µM (inactive) | > 100 µM
COc1ccc(-c2cn(-c3ccc(Cl)cc3)c3[n+]2CCCCC3)cc1 | > 100 µM (inactive) | –
O=C(c1cc(C(=O)N2CCOCC2)c2nc3ccccc3n2c1)c1cc(Cl)cc(Cl)c1O | > 100 µM (inactive) | > 100 µM
Cc1ccc(OCCn2c(=S)[nH]c3c(N)ncnc32)cc1 | > 100 µM (inactive) | 31.8 µM
Cc1ccccc1OCC(O)Cn1c(NCc2ccco2)nc2c1c(=O)n(C)c(=O)n2C (stereo not given) | > 100 µM (inactive) | > 100 µM
O=C(COc1cccc2c1CCN(Cc1ccccc1F)C2=O)N1CCCCC1 | > 100 µM (inactive) | –
COc1ccc(CC(=O)Nc2nc(-c3cc(OC)ccc3OC)cs2)cc1 | > 100 µM (inactive) | 20.9 µM
CCc1ccc(C(=O)Nc2cccnc2Oc2ccc(Cl)cc2)cc1 | – | > 100 µM
CCN(CC(=O)Nc1cccc(S(=O)(=O)N2CCCC2)c1)CC(=O)Nc1ccccc1OC | – | > 100 µM
O=C(NCCCN1CCOCC1)c1sc2cc([N+](=O)[O-])ccc2c1Cl | > 100 µM (inactive) | –
CC(C)(C)NC(=O)C(c1ccncc1)N(Cc1ccc(F)cc1)C(=O)c1ccc(-c2ccccc2)[nH]1 (stereo not given) | – | > 100 µM
CC1(C(=O)NS(=O)(=O)c2ccc3c(c2)CCO3)CCN1C(=O)c1ccccc1CCc1ccccc1 (stereo not given) | > 100 µM (inactive) | –
COc1cc(NC(=O)CSCc2ccc(Cl)cc2Cl)c(C(=O)O)cc1OC | > 100 µM (inactive) | > 100 µM
CCOC(=O)c1[nH]c2ccccc2c1NC(=O)c1ccc(Br)o1 | > 100 µM (inactive) | –
O=C(c1cccc(F)c1)N1CCN(c2ccc([N+](=O)[O-])c3cccnc23)CC1 | > 100 µM (inactive) | > 100 µM
CCOc1ccccc1N1CC(C(=O)Nc2cccc(S(=O)(=O)N3CCCCC3)c2)CC1=O (stereo not given) | – | > 100 µM
Cc1cc(-c2ccc(C)c(S(=O)(=O)NC(C)Cc3ccco3)c2)on1 (stereo not given) | > 100 µM (inactive) | 31 µM
CC(=O)Nc1ccc(OCC(=O)N2CCC(Cc3ccccc3)CC2)cc1 | – | > 100 µM
